Measurements taken from ChEMBL document CHEMBL3853339, “Bioactive phenols as potential neuroinflammation inhibitors from the leaves of Xanthoceras sorbifolia Bunge” (Bioorg Med Chem Lett, 2016).

Legend:
[1] = Cytotoxicity against LPS-activated […] cells assessed as cell viability at 10 uM after 24 hrs by MTT assay (reference value: 98.03 to 98.84%); assay type: toxicity, cell-based, Mus musculus, BV-2; settings: read-out: Activity
[2] = Cytotoxicity against LPS-activated human BV2 cells assessed as cell viability at 100 uM after 24 hrs by MTT assay (reference value: 98.03 to 98.84%); assay type: toxicity, cell-based, Mus musculus, BV-2; settings: read-out: Activity
[3] = Antineuroinflammatory activity in […] cells assessed as inhibition of LPS-induced NO production after 24 hrs in presence of LPS by Griess reaction; assay type: functional, cell-based; settings: BV-2, 24 h
[4] = Cytotoxicity against LPS-activated […] cells assessed as cell viability at 30 uM after 24 hrs by MTT assay (reference value: 98.03 to 98.84%); assay type: toxicity, cell-based, Mus musculus, BV-2; settings: read-out: Activity
[5] = Cytotoxicity against LPS-activated human BV2 cells assessed as cell viability at 1 uM after 24 hrs by MTT assay (reference value: 98.03 to 98.84%); assay type: toxicity, cell-based, Mus musculus, BV-2; settings: read-out: Activity

| IC50 [3] [µM] | SMILES | viability at 24 h, 10 µM [1] [%] | viability at 24 h, 100 µM [2] [%] | viability at 24 h, 30 µM [4] [%] | viability at 24 h, 1 µM [5] [%] |
| --- | --- | --- | --- | --- | --- |
| 47.4 | Oc1cc(O)c2c(c1)O[C@H](c1ccc(O)c(O)c1)[C@H](O)C2 [(-)-EPICATECHIN] | 87.6 | 93.2 | 88 | 84.4 |
| 9.52 | Oc1cc(O)c2c(c1)O[C@H](c1ccc(O)c(O)c1)[C@@H](O)C2 [CIANIDANOL] | 88.3 | 117 | 102 | 81.5 |
| > 100 | O=c1c(O)c(-c2cc(O)c(O)c(O)c2)oc2cc(O)cc(O)c12 [MYRICETIN] | 98.4 | 116 | 109 | 97.7 |
| 37 | CN(C)c1ccc(O)c2c1C[C@H]1C[C@H]3[C@H](N(C)C)C(O)=C(C(N)=O)C(=O)[C@@]3(O)C(O)=C1C2=O [MINOCYCLINE] |  |  |  |  |
| > 100 | COc1cc(-c2oc3cc(O)cc(O)c3c(=O)c2O[C@@H]2O[C@H](CO[C@@H]3O[C@@H](C)[C@H](O)[C@@H](O)[C@H]3O)[C@@H](O)[C@H](O)[C@H]2O)ccc1O [NARCISSIN] | 89.5 | 88.8 | 88.7 | 95.1 |
| 3.08 | COc1cc([C@H]2OC[C@H]3[C@@H]2CO[C@@H]3c2cc(OC)c(O[C@@H]3O[C@H](CO)[C@@H](O)[C@H](O)[C@H]3O)c(OC)c2)cc(OC)c1O | 87.4 | 94.4 | 95.4 | 92.9 |
| > 100 | O=C(O)/C=C\c1ccc(O[C@@H]2O[C@H](CO)[C@@H](O)[C@H](O)[C@H]2O)cc1 | 95.4 | 90 | 93 | 90.9 |
| 13.4 | O=c1c(O[C@@H]2O[C@H](CO)[C@@H](O)[C@H](O)[C@H]2O)c(-c2ccc(O)c(O)c2)oc2cc(O)cc(O)c12 [ISOQUERCETIN] | 98.4 | 85.2 | 87.7 | 101 |
| 88 | C[C@@H]1O[C@@H](OC[C@H]2O[C@@H](Oc3c(-c4ccc(O)cc4)oc4cc(O)cc(O)c4c3=O)[C@H](O)[C@@H](O)[C@@H]2O)[C@H](O)[C@H](O)[C@H]1O [NICOTIFLOROSIDE] | 110 | 113 | 92.1 | 98.7 |
| 74.7 | C[C@@H]1O[C@@H](OC[C@H]2O[C@@H](Oc3c(-c4cc(O)c(O)c(O)c4)oc4cc(O)cc(O)c4c3=O)[C@H](O)[C@@H](O)[C@@H]2O)[C@H](O)[C@H](O)[C@H]1O | 87.1 | 86.9 | 86 | 92.2 |

More lines, now with the values behind:

| SMILES | IC50 [3] [µM] | viability at 24 h, 10 µM [1] [%] | viability at 24 h, 100 µM [2] [%] | viability at 24 h, 30 µM [4] [%] | viability at 24 h, 1 µM [5] [%] |
| --- | --- | --- | --- | --- | --- |
| C[C@@H]1O[C@@H](Oc2c(-c3cc(O)c(O)c(O)c3)oc3cc(O)cc(O)c3c2=O)[C@H](O)[C@H](O)[C@H]1O | > 100 | 99.5 | 107 | 99.3 | 97.9 |
| COc1cc(/C=C/C(=O)O)cc(OC)c1O[C@@H]1O[C@H](CO)[C@@H](O)[C@H](O)[C@H]1O | > 100 | 96.3 | 95.6 | 93.1 | 94.5 |
| O=C(O)/C=C/c1ccc(O[C@@H]2O[C@H](CO)[C@@H](O)[C@H](O)[C@H]2O)cc1 | 9.08 | 98.4 | 94.7 | 101 | 101 |
| Oc1cc(O)c2c(c1)O[C@H](c1cc(O)c(O)c(O)c1)[C@@H](O)C2 [GALLOCATECHIN] | > 100 | 94.2 | 82.6 | 89.5 | 89.5 |
| O=c1c(O)c(-c2ccc(O)c(O)c2)oc2cc(O)cc(O)c12 [QUERCETIN] | 39.5 | 90.7 | 99.7 | 96.9 | 87.5 |
| COc1cc(CO)cc(OC)c1O[C@@H]1O[C@H](CO)[C@@H](O)[C@H](O)[C@H]1O | > 100 | 94.7 | 87 | 90.7 | 91.1 |
| O=c1c(O[C@@H]2O[C@H](CO)[C@@H](O)[C@H](O)[C@H]2O[C@@H]2O[C@H](CO)[C@@H](O)[C@H](O)[C@H]2O)c(-c2ccc(O)c(O)c2)oc2cc(O)cc(O)c12 | > 100 | 87.7 | 108 | 96.5 | 84.5 |
| Oc1cc(O)c2c(c1)O[C@H](c1cc(O)c(O)c(O)c1)[C@H](O)C2 [EPIGALLOCATECHIN] | > 100 | 96.4 | 94.6 | 100 | 95.3 |
| Oc1cc(O)c2c(c1)O[C@]1(c3ccc(O)c(O)c3)Oc3cc(O)c4c(c3[C@H]2[C@@H]1O)O[C@@]1(c2ccc(O)c(O)c2)Oc2cc(O)c3c(c2[C@@H]4[C@H]1O)O[C@@H](c1ccc(O)c(O)c1)[C@H](O)C3 | > 100 | 97.3 | 112 | 104 | 94.4 |
| COc1cc([C@@H]2OC[C@H]3[C@@H]2CO[C@@H]3c2cc(OC)c(O[C@@H]3O[C@H](CO)[C@@H](O)[C@H](O)[C@H]3O)c(OC)c2)cc(OC)c1O | > 100 | 91.6 | 100 | 102 | 92.4 |
| C[C@@H]1O[C@@H](Oc2c(-c3ccc(O)c(O)c3)oc3cc(O)cc(O)c3c2=O)[C@H](O)[C@H](O)[C@H]1O [QUERCITRIN] | > 100 | 91 | 96.5 | 99.3 | 92 |
| C[C@@H]1O[C@@H](OC[C@H]2O[C@@H](Oc3c(-c4ccc(O)c(O)c4)oc4cc(O)cc(O)c4c3=O)[C@H](O)[C@@H](O)[C@@H]2O)[C@H](O)[C@H](O)[C@H]1O [RUTIN] |  | 94.6 | 95 | 91 | 97.2 |
| COc1cc([C@@H]2OC[C@H]3[C@@H]2CO[C@H]3c2cc(OC)c(O[C@@H]3O[C@H](CO)[C@@H](O)[C@H](O)[C@H]3O)c(OC)c2)cc(OC)c1O[C@@H]1O[C@H](CO)[C@@H](O)[C@H](O)[C@H]1O | > 100 | 97.5 | 94.9 | 100 | 100 |
